Results taken from patent US10040781B2, “Tank-binding kinase inhibitor compounds” (Gilead Sciences, Inc., priority 2014, dated 2018).
Where two headings read alike, the source gives them in different places.

Tests used:
TBK1 = TBK1 (Homo sapiens (Human), UniProt Q9UHD2); assay: TBK1 TR-FRET enzymatic assay;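 note: phosphorylation of a biotinylated Ser/Thr peptide by purified full-length recombinant TBK1, read by TR-FRET after 240 min at 25 °C, IC50 is the geometric mean of at least four runs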
Procedure: Enzymatic activity of IKKε and TBK1 was measured using a homogeneous time resolved fluorescence resonance energy transfer (TR-FRET) assay that monitors enzyme dependent phosphorylation of a biotinylated serine/threonine peptide substrate. […] TBK1 and IKKε were expressed and purified as full length recombinant proteins. Detection reagents for the assay were purchased from Cisbio. […] After an assay reaction time of 240 minutes at 25° C., reactions were terminated with EDTA.
All IC50 values represent geometric mean values of a minimum of four determinations.

IKKε = IKKε (Homo sapiens (Human), UniProt Q14164); assay: IKKε TR-FRET enzymatic assay; format: biochemical; settings: read-out: IKKe IC50
Sequence of IKKε (Q14164 whole entry): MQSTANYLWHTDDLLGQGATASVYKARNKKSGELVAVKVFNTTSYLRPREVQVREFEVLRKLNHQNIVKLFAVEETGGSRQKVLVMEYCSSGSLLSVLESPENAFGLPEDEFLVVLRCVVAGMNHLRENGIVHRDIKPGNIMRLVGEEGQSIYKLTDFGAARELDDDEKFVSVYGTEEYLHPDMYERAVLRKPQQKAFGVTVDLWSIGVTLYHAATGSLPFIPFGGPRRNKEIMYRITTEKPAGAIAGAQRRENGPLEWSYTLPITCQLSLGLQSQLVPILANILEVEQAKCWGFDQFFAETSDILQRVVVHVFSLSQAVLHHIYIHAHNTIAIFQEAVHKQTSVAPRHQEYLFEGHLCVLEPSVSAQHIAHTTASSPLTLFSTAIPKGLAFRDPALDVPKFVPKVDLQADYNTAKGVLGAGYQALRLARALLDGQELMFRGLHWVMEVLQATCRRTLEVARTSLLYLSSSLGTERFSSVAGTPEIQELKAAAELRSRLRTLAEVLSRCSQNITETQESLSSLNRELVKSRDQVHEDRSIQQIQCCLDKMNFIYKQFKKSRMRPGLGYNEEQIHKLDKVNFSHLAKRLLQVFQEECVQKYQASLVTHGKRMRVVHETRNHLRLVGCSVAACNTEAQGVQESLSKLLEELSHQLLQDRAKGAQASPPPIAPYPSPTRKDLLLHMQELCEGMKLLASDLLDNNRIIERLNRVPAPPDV

hJAK2 = hJAK2 (Homo sapiens (Human), UniProt O60674); assay: hJAK2 LANCE TR-FRET enzymatic assay; format: biochemical; settings: read-out: JAK2 IC50
Sequence of hJAK2 (O60674 whole entry): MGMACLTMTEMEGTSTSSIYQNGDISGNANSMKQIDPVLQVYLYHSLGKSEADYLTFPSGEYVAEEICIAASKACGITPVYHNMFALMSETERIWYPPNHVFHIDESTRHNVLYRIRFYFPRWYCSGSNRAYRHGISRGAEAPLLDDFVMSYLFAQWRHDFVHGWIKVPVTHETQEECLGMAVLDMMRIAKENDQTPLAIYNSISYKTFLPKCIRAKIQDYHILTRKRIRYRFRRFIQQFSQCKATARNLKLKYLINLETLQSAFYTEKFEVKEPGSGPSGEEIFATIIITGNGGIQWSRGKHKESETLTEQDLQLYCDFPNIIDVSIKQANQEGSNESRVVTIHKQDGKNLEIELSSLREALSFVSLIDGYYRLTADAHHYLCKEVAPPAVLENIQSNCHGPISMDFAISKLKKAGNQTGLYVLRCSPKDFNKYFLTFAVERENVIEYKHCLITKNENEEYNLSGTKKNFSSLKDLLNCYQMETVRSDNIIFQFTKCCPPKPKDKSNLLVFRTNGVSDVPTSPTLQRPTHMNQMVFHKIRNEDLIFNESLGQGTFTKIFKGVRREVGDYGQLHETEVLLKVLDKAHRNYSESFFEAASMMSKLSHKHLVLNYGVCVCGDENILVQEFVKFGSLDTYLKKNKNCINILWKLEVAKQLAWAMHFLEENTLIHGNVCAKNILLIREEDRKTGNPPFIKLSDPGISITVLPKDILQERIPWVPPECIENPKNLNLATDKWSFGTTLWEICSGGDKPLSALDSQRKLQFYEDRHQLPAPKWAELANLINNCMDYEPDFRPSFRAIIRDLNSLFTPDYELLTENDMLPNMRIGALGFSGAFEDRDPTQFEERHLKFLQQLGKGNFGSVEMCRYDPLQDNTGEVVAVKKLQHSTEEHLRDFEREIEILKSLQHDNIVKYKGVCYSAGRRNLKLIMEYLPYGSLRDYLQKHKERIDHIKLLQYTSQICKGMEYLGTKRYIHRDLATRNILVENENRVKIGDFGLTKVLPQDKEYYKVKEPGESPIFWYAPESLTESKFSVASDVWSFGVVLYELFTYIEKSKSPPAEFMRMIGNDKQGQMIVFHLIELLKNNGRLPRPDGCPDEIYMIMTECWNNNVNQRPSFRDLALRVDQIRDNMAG

[1] = TR-FRET, 2×Km ATP, geometric mean of minimum four determinations

Sequence of TBK1 (Q9UHD2 whole entry): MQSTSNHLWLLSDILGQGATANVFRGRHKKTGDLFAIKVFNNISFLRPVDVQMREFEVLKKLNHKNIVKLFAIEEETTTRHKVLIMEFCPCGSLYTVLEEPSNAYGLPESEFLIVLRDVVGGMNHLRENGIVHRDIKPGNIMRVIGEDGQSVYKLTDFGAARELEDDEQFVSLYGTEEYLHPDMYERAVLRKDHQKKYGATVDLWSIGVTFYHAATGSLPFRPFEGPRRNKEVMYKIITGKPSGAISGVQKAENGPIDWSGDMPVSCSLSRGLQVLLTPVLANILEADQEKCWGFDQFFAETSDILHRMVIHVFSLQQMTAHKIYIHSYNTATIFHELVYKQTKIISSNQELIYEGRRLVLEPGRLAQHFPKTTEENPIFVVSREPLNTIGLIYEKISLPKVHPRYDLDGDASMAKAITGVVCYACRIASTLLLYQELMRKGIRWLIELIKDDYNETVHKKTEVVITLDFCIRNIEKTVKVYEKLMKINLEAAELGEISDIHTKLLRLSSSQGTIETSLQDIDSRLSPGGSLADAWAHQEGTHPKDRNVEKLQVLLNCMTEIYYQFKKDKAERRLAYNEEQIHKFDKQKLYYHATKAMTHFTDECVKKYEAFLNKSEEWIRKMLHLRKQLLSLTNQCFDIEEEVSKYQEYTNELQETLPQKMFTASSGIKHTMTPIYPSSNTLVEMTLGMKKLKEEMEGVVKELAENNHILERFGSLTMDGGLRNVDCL

| Structure (SMILES) | IC50 (TBK1) | IC50 (IKKε) | IC50 (hJAK2) | IC50 (IKKε; [1]) |
| --- | --- | --- | --- | --- |
| C[C@H](O)C(=O)N1CC[C@H](Oc2ccc(-c3ncnc(Nc4ccc(N5CCOC(C(N)=O)C5)cc4)n3)cc2C#N)[C@H](F)C1 (stereo partly drawn) [Example 314, 4-(4-((4-(3-cyano-4-(((3R,4S)-3-fluoro-1-((S)-2-hydroxypropanoyl)piperidin-4-yl)oxy)phenyl)-1,3,5-triazin-2-yl)amino)phenyl)morpholine-2-carboxamide] | 3 nM | 1 nM | 609 nM | – |
| COc1cc(Nc2ncnc(-c3ccc(O[C@H]4CCN(C(=O)[C@@H](O)CO)CC4(F)F)c(C#N)c3)n2)ccn1 [Example 479, 2-(((S)-1-((S)-2,3-dihydroxypropanoyl)-3,3-difluoropiperidin-4-yl)oxy)-5-(4-((2-methoxypyridin-4-yl)amino)-1,3,5-triazin-2-yl)benzonitrile] | 2 nM | – | ≥ 1000 nM | 1 nM |
| N#Cc1cc(-c2ncnc(Nc3cn[nH]c3)n2)ccc1O[C@H]1CCN(C(=O)CO)C[C@H]1F [Example 507, 5-(4-((1H-pyrazol-4-yl)amino)-1,3,5-triazin-2-yl)-2-(((3R,4S)-3-fluoro-1-(2-hydroxyacetyl)piperidin-4-yl)oxy)benzonitrile] | 3 nM | – | 432 nM | 2 nM |
| C[C@H](O)C(=O)N1CC[C@H](Oc2ccc(-c3ncnc(Nc4ccc(N5CCN(C6COC6)CC5)c(F)c4)n3)cc2C#N)[C@H](F)C1 [Example 367, 2-(((3R,4S)-3-fluoro-1-((S)-2-hydroxypropanoyl)piperidin-4-yl)oxy)-5-(4-((3-fluoro-4-(4-(oxetan-3-yl)piperazin-1-yl)phenyl)amino)-1,3,5-triazin-2-yl)benzonitrile] | 3 nM | 2 nM | ≥ 1000 nM | – |
| N#Cc1cc(-c2ncnc(Nc3ccc(N4CCN(C5COC5)CC4)cc3)n2)ccc1O[C@H]1CCN(C(=O)[C@H]2CCCN2)C[C@H]1F [Example 130, 2-(((3R,4S)-3-fluoro-1-((R)-pyrrolidine-2-carbonyl)piperidin-4-yl)oxy)-5-(4-((4-(4-(oxetan-3-yl)piperazin-1-yl)phenyl)amino)-1,3,5-triazin-2-yl)benzonitrile] | 29 nM | 73 nM | ≥ 1000 nM | – |
| N#Cc1cc(-c2ncnc(Nc3ccc(N4CCN(C5COC5)CC4)cc3)n2)ccc1OCCc1cnc2ncnn2c1 [Example 599] | 37 nM | 176 nM | 510 nM | – |
| N#CCC(=O)N1CC[C@H](Oc2c(F)cc(-c3ncnc(Nc4ccc(N5CCN(C6COC6)CC5)cc4)n3)cc2C#N)[C@H](F)C1 [Example 330, 2-(((3R,4S)-1-(2-cyanoacetyl)-3-fluoropiperidin-4-yl)oxy)-3-fluoro-5-(4-((4-(4-(oxetan-3-yl)piperazin-1-yl)phenyl)amino)-1,3,5-triazin-2-yl)benzonitrile] | 4 nM | 6 nM | 941 nM | – |
| N#Cc1cc(-c2ncnc(Nc3ccc(N4CCN(C5COC5)CC4)cc3)n2)ccc1OC1CCC2(CC1)OCCO2 [Example 279, 2-(1,4-dioxaspiro[4.5]decan-8-yloxy)-5-(4-((4-(4-(oxetan-3-yl)piperazin-1-yl)phenyl)amino)-1,3,5-triazin-2-yl)benzonitrile] | 27 nM | 75 nM | ≥ 1000 nM | – |
| N#Cc1cc(-c2ncnc(Nc3ccc(N4CCN(C5COC5)CC4)cc3)n2)ccc1O[C@H]1CCN(C(=O)N2CC[C@H](O)C2)C[C@H]1F [Example 426, 2-(((3R,4S)-3-fluoro-1-((S)-3-hydroxypyrrolidine-1-carbonyl)piperidin-4-yl)oxy)-5-(4-((4-(4-(oxetan-3-yl)piperazin-1-yl)phenyl)amino)-1,3,5-triazin-2-yl)benzonitrile] | 79 nM | – | ≥ 1000 nM | 201 nM |
| Cc1cc(Nc2ncnc(-c3ccc(O[C@H]4CCN(C(=O)CO)C[C@H]4F)c(C#N)c3)n2)ccc1N1CCN(C2COC2)CC1 [Example 394, 2-(((3R,4S)-3-fluoro-1-(2-hydroxyacetyl)piperidin-4-yl)oxy)-5-(4-((3-methyl-4-(4-(oxetan-3-yl)piperazin-1-yl)phenyl)amino)-1,3,5-triazin-2-yl)benzonitrile] | 2 nM | 1 nM | 64 nM | – |
| N#Cc1cc(-c2ncnc(Nc3ccc(N4CCN(C5COC5)CC4)cc3)n2)ccc1N1CC[C@@H](F)C1 [Example 200, (R)-2-(3-fluoropyrrolidin-1-yl)-5-(4-((4-(4-(oxetan-3-yl)piperazin-1-yl)phenyl)amino)-1,3,5-triazin-2-yl)benzonitrile] | 3 nM | 7 nM | 109 nM | – |
| N#Cc1cc(-c2ncnc(Nc3ccc(N4CCN(C5COC5)CC4)cc3)n2)ccc1O[C@H]1CCN(C(=O)[C@@H]2CNC(=O)C2)C[C@H]1F [Example 548, 2-(((3R,4S)-3-fluoro-1-((S)-5-oxopyrrolidine-3-carbonyl)piperidin-4-yl)oxy)-5-(4-((4-(4-(oxetan-3-yl)piperazin-1-yl)phenyl)amino)-1,3,5-triazin-2-yl)benzonitrile] | 21 nM | – | 353 nM | 96 nM |
| C[C@H]1C[C@@H](Oc2ccc(-c3ncnc(Nc4ccc(N5CCN(C6COC6)CC5)cc4)n3)cc2C#N)CCN1C(=O)CO [Example 169, 2-(((2S,4S)-1-(2-hydroxyacetyl)-2-methylpiperidin-4-yl)oxy)-5-(4-((4-(4-(oxetan-3-yl)piperazin-1-yl)phenyl)amino)-1,3,5-triazin-2-yl)benzonitrile] | 2 nM | 5 nM | 230 nM | – |
| N#Cc1cc(-c2ncnc(Nc3ccc(N4CCN(C5COC5)CC4)cc3)n2)ccc1N1CC2(CCOCC2)C1 [Example 211, 5-(4-((4-(4-(oxetan-3-yl)piperazin-1-yl)phenyl)amino)-1,3,5-triazin-2-yl)-2-(7-oxa-2-azaspiro[3.5]nonan-2-yl)benzonitrile] | 6 nM | 22 nM | 170 nM | – |
| N#Cc1cc(-c2ncnc(Nc3ccc(N4CCN(C5COC5)CC4)cc3)n2)ccc1OC1CCN(C(=O)[C@H]2CCC(=O)N2)C[C@H]1F (stereo partly drawn) [Example 113, 2-(((3R)-3-fluoro-1-((R)-5-oxopyrrolidine-2-carbonyl)piperidin-4-yl)oxy)-5-(4-((4-(4-(oxetan-3-yl)piperazin-1-yl)phenyl)amino)-1,3,5-triazin-2-yl)benzonitrile] | 64 nM | 100 nM | 292 nM | – |

Second part, the compound after the results:

| IC50 (TBK1) | IC50 (IKKε) | IC50 (hJAK2) | IC50 (IKKε; [1]) | Structure (SMILES) |
| --- | --- | --- | --- | --- |
| 4 nM | – | 179 nM | 11 nM | CS(=O)(=O)CC(=O)N1CC[C@H](Oc2ccc(-c3ncnc(Nc4ccc(N5CCN(C6COC6)CC5)cc4)n3)cc2C#N)[C@H](F)C1 [Example 549, 2-(((3R,4S)-3-fluoro-1-(2-(methylsulfonyl)acetyl)piperidin-4-yl)oxy)-5-(4-((4-(4-(oxetan-3-yl)piperazin-1-yl)phenyl)amino)-1,3,5-triazin-2-yl)benzonitrile] |
| 2 nM | 1 nM | 162 nM | – | COC[C@H](O)C(=O)N1CC[C@H](Oc2ccc(-c3ncnc(Nc4ccc(N5CCN(C6COC6)CC5)cc4)n3)cc2C#N)[C@H](F)C1 [Example 618, 2-(((3R,4S)-3-fluoro-1-((S)-2-hydroxy-3-methoxypropanoyl)piperidin-4-yl)oxy)-5-(4-((4-(4-(oxetan-3-yl)piperazin-1-yl)phenyl)amino)-1,3,5-triazin-2-yl)benzonitrile] |
| 5 nM | 3 nM | 127 nM | – | N#Cc1cc(-c2ncnc(Nc3ccc(N4CCN(C5COC5)CC4)cc3)n2)ccc1O[C@H]1CCN(C(=O)c2cn(CCO)nn2)C[C@H]1F [Example 376] |
| 25 nM | 45 nM | 268 nM | – | N#Cc1cc(-c2ncnc(Nc3ccc(N4CCN(C5COC5)CC4)cc3)n2)ccc1O[C@H]1CCN(C(=O)C2(O)CNC2)C[C@H]1F [Example 614, 2-(((3R,4S)-3-fluoro-1-(3-hydroxyazetidine-3-carbonyl)piperidin-4-yl)oxy)-5-(4-((4-(4-(oxetan-3-yl)piperazin-1-yl)phenyl)amino)-1,3,5-triazin-2-yl)benzonitrile] |
| 2 nM | – | 433 nM | 1 nM | N#Cc1cc(-c2ncnc(Nc3ccc(N4CCN(C5COC5)CC4)cc3)n2)ccc1O[C@H]1CCN(C(=O)[C@@H](O)CO)C[C@H]1F [Example 584, 2-(((3R,4S)-1-((S)-2,3-dihydroxypropanoyl)-3-fluoropiperidin-4-yl)oxy)-5-(4-((4-(4-(oxetan-3-yl)piperazin-1-yl)phenyl)amino)-1,3,5-triazin-2-yl)benzonitrile] |
| 11 nM | – | 750 nM | 36 nM | N#Cc1cc(-c2ncnc(Nc3ccc(N4CCN(C5COC5)CC4)cc3)n2)ccc1O[C@H]1CCN(C(=O)C2CC(O)C2)C[C@H]1F (stereo partly drawn) [Example 550, 2-(((3R,4S)-3-fluoro-1-(3-hydroxycyclobutanecarbonyl)piperidin-4-yl)oxy)-5-(4-((4-(4-(oxetan-3-yl)piperazin-1-yl)phenyl)amino)-1,3,5-triazin-2-yl)benzonitrile] |
| 3 nM | 1 nM | 156 nM | – | N#Cc1cc(-c2ncnc(Nc3ccc(N4CCN(C5COC5)CC4)cc3)n2)ccc1O[C@H]1CCN(C(=O)c2cnc[nH]2)C[C@H]1F [Example 146, 2-(((3R,4S)-3-fluoro-1-(1H-imidazole-5-carbonyl)piperidin-4-yl)oxy)-5-(4-((4-(4-(oxetan-3-yl)piperazin-1-yl)phenyl)amino)-1,3,5-triazin-2-yl)benzonitrile] |
| 3 nM | 4 nM | 174 nM | – | N#Cc1cc(-c2ncnc(Nc3ccc(N4CCN(C5COC5)CC4)cc3)n2)ccc1O[C@H]1CCN(C(=O)c2ncc[nH]2)C[C@H]1F [Example 142, 2-(((3R,4S)-3-fluoro-1-(1H-imidazole-2-carbonyl)piperidin-4-yl)oxy)-5-(4-((4-(4-(oxetan-3-yl)piperazin-1-yl)phenyl)amino)-1,3,5-triazin-2-yl)benzonitrile] |
